# Measurements published in patent US20080033026A1, “Antimicrobial compositions, methods and systems” (priority 2006, published 2008).
# What was measured:
# [1] = test system: Staphylococcus aureus (ATCC 6538); test: Time-kill determination; type: cell-based
# Description: (§1) The assessment of efficacy of 9-decenoic acid against a spectrum of microorganisms was determined using the American Society for Testing and Materials (ASTM) procedure entitled “Standard Test Method for the Assessment of Microbiocidal Activity of Test Materials Using a Time-Kill Procedure,” October 1998. This procedure incorporates the recommendations described in the “Manual of Clinical Microbiology,” 5th ed., edited by A. B. Balows et al., ASM, Washington, and is directed by the Federal Register, June 1994.
# (§2) Challenge organisms were prepared as follows. Cultures of the following organisms were obtained: Staphylococcus aureus (ATCC 6538), Pseudomonas aeruginosa (ATCC 15442), Staphylococcus epidermidis (ATCC 12228), Klebsiella pneumoniae (ATCC 4352), Escherichia coli 0157:H7 (ATCC 43895) and Candida albicans (ATCC 10231). The stock cultures were transferred to sterile tubes and sterile tryptic soy broth (TSB) was added to the cultures. The mixture was incubated for 18-24 hours at 37° C. (±2° C.). A portion of this culture was then transferred onto TSA plates and incubated for 18-24 hours at 37° C. (±2° C.). The plates were removed from incubation and the bacterial growth was washed from the agar surface using Butterfield's Phosphate Buffered Dilution Water (PBDW).
# (§3) The bacterial suspension was adjusted to contain approximately 10^8 Colony Forming Units (CFU) per ml with PBDW. The concentration was adjusted to an optical density (OD) of 0.4-0.5 (versus a PBDW blank) at 620 nm in a UV-Vis spectrophotometer, and this optical density gave approximately 10^8 colony forming units per milliliter (cfu/ml). The standardized suspension was stored under appropriate conditions until it was used as the challenge inoculum.
# (§4) Concentrated 9-decenoic acid (97%) was diluted in filter sterilized isopropanol to yield a 25,000 ppm stock solution. Subsequent dilutions to the 9-decenoic acid stock solutions were made with sterile Deionized Water (DI) to achieve concentrations of 0.1%, 0.05%, 0.01% and 0.001%. The pH was determined for each dilution; pH values ranged from 4.4-4.1. […] In addition, 9-decenoic acid stock solution was combined with Triclosan™ (obtained from Ciba Specialty Chemical Corporation, under the tradename Irgasan DP 300™) in various ratios, as indicated in Table 8. The pH of the combined solution was 7.
# (§5) Compliant with the ASTM procedure cited, for each challenge microorganism a 9.9 ml aliquot of the prepared 9-decenoic acid suspension was added to a sterile tube. A 0.1 ml aliquot of the standardized inoculum was added to the 9-decenoic acid solution representing the start of the test exposure. The inoculated 9-decenoic acid solution was immediately mixed thoroughly. The inoculated suspension was held at room temperature for 0.5, 2, 5, 7 and 10-minute exposure times for tests run at pH level of approximately 4. The pH 7 tests were held at room temperature for 0.5 and 2 minutes.
# (§6) At each exposure sample time, a 1.0 ml aliquot of the inoculated 9-decenoic acid suspension was transferred to 9.0 ml of D/E Neutralizing Broth. Additional ten-fold serial dilutions were made in PBDW and plated in duplicate on TSA. All plates were incubated for 48 hours at 37° C. (±2° C.) and visually examined for growth. The plates were enumerated, recorded and log kill determined for each time point.
# (§7) The following study controls were conducted: culture purity, neutralizer sterility, initial suspension population, test population, neutralization verification and a negative control using isopropanol. Culture purity was verified by performing a streak plate for isolated colonies of each culture used. All cultures were determined to be pure based on consistent colony morphology typical for the test organism. The neutralizer sterility was confirmed by no growth in an incubated sample.
# (§8) The populations of the initial and test culture were determined by serial dilution, plating and enumerating after incubation. The initial suspension were determined to be ≧10^4 CFU/ml. […]
# [2] = test system: Escherichia coli 0157:H7 (ATCC 43895); test: Time-kill determination; type: cell-based
# Description: as §1, §2, §3, §4, §5, §6, §7, §8
# [3] = 0.01% 9-decenoic acid, pH 4.4, exposure 0.5 min
# [4] = 0.01% 9-decenoic acid, pH 4.4, exposure 2 min
# [5] = 0.01% 9-decenoic acid, pH 4.4, exposure 5 min
# [6] = 0.01% 9-decenoic acid, pH 4.4, exposure 7 min
# [7] = 0.01% 9-decenoic acid, pH 4.4, exposure 10 min
# [8] = 0.05% 9-decenoic acid, pH 4.1, exposure 0.5 min
# [9] = 0.05% 9-decenoic acid, pH 4.1, exposure 2 min
# [10] = 0.05% 9-decenoic acid, pH 4.1, exposure 5 min
# [11] = 0.05% 9-decenoic acid, pH 4.1, exposure 7 min
# [12] = 0.05% 9-decenoic acid, pH 4.1, exposure 10 min
# [13] = 0.05% 9-decenoic acid, pH 7, exposure 0.5 min
# [14] = 0.05% 9-decenoic acid, pH 7, exposure 2 min
# [15] = 0.1% 9-decenoic acid, pH 4.1, exposure 0.5 min
# [16] = 0.1% 9-decenoic acid, pH 4.1, exposure 2 min
# [17] = 0.1% 9-decenoic acid, pH 4.1, exposure 5 min
# [18] = 0.1% 9-decenoic acid, pH 4.1, exposure 7 min
# [19] = 0.1% 9-decenoic acid, pH 4.1, exposure 10 min
# [20] = 0.75% 9-decenoic acid, pH 7, exposure 0.5 min
# [21] = 0.75% 9-decenoic acid, pH 7, exposure 2 min
# [22] = 1% 9-decenoic acid, pH 7, exposure 0.5 min
# [23] = 1% 9-decenoic acid, pH 7, exposure 2 min
structure (smiles),measurement,setting,value
C=CCCCCCCCC(=O)O [9-decenoic acid],Log reduction,[1]; [3],1.4 log
same,Log reduction,[1]; [4],4.6 log
same,Log reduction,[1]; [5],>6.5 log
same,Log reduction,[1]; [6],>6.5 log
same,Log reduction,[1]; [7],>6.5 log
same,Log reduction,[1]; [8],>6.5 log
same,Log reduction,[1]; [9],>6.5 log
same,Log reduction,[1]; [10],>6.5 log
same,Log reduction,[1]; [11],>6.5 log
same,Log reduction,[1]; [12],>6.5 log
same,Log reduction,[1]; [13],0 log
same,Log reduction,[1]; [14],0 log
same,Log reduction,[1]; [15],>6.5 log
same,Log reduction,[1]; [16],>6.5 log
same,Log reduction,[1]; [17],>6.5 log
same,Log reduction,[1]; [18],>6.5 log
same,Log reduction,[1]; [19],>6.5 log
same,Log reduction,[1]; [20],0.67 log
same,Log reduction,[1]; [21],1 log
same,Log reduction,[1]; [22],2.1 log
same,Log reduction,[1]; [23],3.2 log
same,Log reduction,[2]; [3],1.3 log
same,Log reduction,[2]; [4],1.6 log
same,Log reduction,[2]; [5],2.2 log
same,Log reduction,[2]; [6],1.8 log
same,Log reduction,[2]; [7],2.7 log
same,Log reduction,[2]; [8],>6.2 log
same,Log reduction,[2]; [9],>6.2 log
same,Log reduction,[2]; [10],>6.2 log
same,Log reduction,[2]; [11],>6.2 log
same,Log reduction,[2]; [12],>6.2 log
same,Log reduction,[2]; [13],0 log
same,Log reduction,[2]; [14],0 log
same,Log reduction,[2]; [15],>6.2 log
same,Log reduction,[2]; [16],>6.2 log
same,Log reduction,[2]; [17],>6.2 log
same,Log reduction,[2]; [18],>6.2 log
same,Log reduction,[2]; [19],>6.2 log
same,Enhancement of disinfectant activity of marginally-effective concentrations of Triclosan,"[2]; 0.5% 9-decenoic acid added to Triclosan, pH 7",1-2 log reductions
same,Log reduction,"[2]; 0.5% 9-decenoic acid, pH 7, exposure 0.5 min",0 log
same,Log reduction,"[2]; 0.5% 9-decenoic acid, pH 7, exposure 2 min",0 log
same,Log reduction,[2]; [20],0.83 log
same,Log reduction,[2]; [21],>4.2 log
same,Log reduction,[2]; [22],>4.2 log
same,Log reduction,[2]; [23],>4.2 log
